What was measured:
[1] = target: T1, HIV-1 RT-associated RNase H (Human immunodeficiency virus type 1 group M subtype B, UniProt P04585); assay: HIV-1 RNase H polymerase-independent cleavage assay; assay type: biochemical; conditions: compound concentration required to inhibit the HIV-1 RNase H activity by 50%; recombinant HIV-1 RT
T1 construct: The recombinant HIV-1 RT protein; His tag; made in house; host or cells: E. coli strain M15

human MT-4 cells = assay: Cellular cytotoxicity in MT-4 cells; conditions: preliminary finding

Row | Compound | IC50 [1] [µM] | melting point [°C] | cellular cytotoxicity (human MT-4 cells) [µM]
1 | NS(=O)(=O)c1ccc(-n2cc(-c3ccccc3)nn2)cc1 [Compound 9c] | > 100 | 260 to 261 | 
2 | CCCCCc1ccc(-c2cn(-c3c(F)c(F)c(S(N)(=O)=O)c(F)c3F)nn2)cc1 [Compound 10d] |  | 197 to 198 | > 7
3 | CCCCCc1ccc(-c2cn(-c3ccc(S(N)(=O)=O)cc3)nn2)cc1 [Compound 9d] |  | 253 to 256 | 
4 | NCc1cn(-c2ccc(S(N)(=O)=O)cc2)nn1 [Compound 9a] | > 100 |  | 
5 | CCOC(=O)C(=O)CC(=O)/C=C/c1cccn1Cc1ccccc1Cl [RDS1759, reference compound] | 7 ± 1.5 |  | 
6 | NS(=O)(=O)c1c(F)c(F)c(-n2cc(CO)nn2)c(F)c1F [Compound 10b] |  | 133 to 134 | 
7 | NS(=O)(=O)c1ccc(-n2cc(CO)nn2)cc1 [Compound 9b] | > 100 | 195 to 197 | 

— paper PMC5000766, “Inhibitory Effect of 2,3,5,6-Tetrafluoro-4-[4-(aryl)-1H-1,2,3-triazol-1-yl]benzenesulfonamide Derivatives on HIV Reverse Transcriptase Associated RNase H Activities” (International Journal of Molecular Sciences, 2016)
